Where a name gives a salt, the structure may show the parent alone.
Assays:
Vps34 = Vps34 (Homo sapiens (Human), UniProt Q8NEB9); conditions: read-out: Assay C VPS34 IC50
mTOR = mTOR (Homo sapiens (Human), UniProt P42345); conditions: read-out: Assay G mTOR IC50
PI 4-kinase beta = PI 4-kinase beta (Homo sapiens (Human), UniProt Q9UBF8); conditions: read-out: Assay D PI4Kβ IC50
Sequence of PI 4-kinase beta (Q9UBF8 whole entry): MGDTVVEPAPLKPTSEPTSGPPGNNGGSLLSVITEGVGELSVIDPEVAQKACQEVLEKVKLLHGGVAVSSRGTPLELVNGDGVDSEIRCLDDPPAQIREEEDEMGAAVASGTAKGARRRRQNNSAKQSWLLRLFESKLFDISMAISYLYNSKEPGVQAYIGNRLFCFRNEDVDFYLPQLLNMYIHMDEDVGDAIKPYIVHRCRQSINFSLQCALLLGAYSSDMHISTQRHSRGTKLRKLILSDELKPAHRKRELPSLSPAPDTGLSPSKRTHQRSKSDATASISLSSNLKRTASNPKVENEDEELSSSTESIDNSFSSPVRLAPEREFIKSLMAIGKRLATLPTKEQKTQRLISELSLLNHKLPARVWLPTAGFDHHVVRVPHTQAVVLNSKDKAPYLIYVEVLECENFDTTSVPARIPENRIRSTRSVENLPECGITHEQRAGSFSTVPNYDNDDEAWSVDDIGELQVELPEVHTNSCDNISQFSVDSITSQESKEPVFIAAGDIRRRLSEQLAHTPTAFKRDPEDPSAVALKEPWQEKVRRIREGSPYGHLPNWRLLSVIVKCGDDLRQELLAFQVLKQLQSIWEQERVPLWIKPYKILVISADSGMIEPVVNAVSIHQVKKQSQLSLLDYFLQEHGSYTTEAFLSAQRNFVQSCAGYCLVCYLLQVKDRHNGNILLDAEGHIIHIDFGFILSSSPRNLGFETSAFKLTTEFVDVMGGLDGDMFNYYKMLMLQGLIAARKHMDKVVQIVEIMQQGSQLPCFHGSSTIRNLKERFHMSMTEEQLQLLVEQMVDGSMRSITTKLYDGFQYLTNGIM

Sequence of Vps34 (Q8NEB9 whole entry): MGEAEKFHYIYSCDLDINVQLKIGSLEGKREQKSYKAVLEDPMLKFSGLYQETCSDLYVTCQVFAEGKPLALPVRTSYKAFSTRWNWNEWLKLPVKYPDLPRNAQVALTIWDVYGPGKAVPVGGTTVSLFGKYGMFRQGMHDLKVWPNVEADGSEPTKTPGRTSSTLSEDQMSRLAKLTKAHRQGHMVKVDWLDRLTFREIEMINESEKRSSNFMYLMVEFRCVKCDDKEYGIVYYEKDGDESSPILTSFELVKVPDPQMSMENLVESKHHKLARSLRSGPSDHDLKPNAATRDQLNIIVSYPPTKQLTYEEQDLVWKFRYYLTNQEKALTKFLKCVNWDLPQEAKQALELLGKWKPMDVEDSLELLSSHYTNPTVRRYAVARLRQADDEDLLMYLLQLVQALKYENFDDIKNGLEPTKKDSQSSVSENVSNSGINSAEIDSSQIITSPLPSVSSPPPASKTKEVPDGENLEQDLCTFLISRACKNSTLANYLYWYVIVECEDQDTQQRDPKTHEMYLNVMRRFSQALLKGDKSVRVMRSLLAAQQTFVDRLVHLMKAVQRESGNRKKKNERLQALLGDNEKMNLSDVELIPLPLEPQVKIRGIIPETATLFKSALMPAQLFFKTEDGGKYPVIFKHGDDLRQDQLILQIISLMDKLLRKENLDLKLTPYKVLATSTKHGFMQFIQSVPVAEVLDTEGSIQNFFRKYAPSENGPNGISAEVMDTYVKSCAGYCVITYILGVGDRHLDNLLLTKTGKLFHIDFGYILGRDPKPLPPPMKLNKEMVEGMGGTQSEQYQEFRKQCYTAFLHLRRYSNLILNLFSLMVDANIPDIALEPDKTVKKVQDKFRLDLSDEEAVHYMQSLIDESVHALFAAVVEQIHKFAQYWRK

SMILES	IC50 (Vps34)	IC50 (mTOR)	IC50 (PI 4-kinase beta)
Cc1noc(-c2cc(-c3cc(S(=O)(=O)NC4CC(O)C4)ccc3C)cnc2N)n1 (mixture of isomers) [Example 5.5, Diastereomers of 3-(6-Amino-5-(3-methyl-1,2,4-oxadiazol-5-yl)pyridin-3-yl)-N-(3-hydroxycyclobutyl)-4-methylbenzene sulfonamide hydrochloride]	> 10 µM	> 10 µM	
Cc1ncc(-c2cc(-c3cc(S(=O)(=O)NCCC(C)(C)O)ccc3C)cnc2N)s1 [Example 4, 3-(6-Amino-5-(2-methylthiazol-5-yl)pyridin-3-yl)-N-(3-hydroxy-3-methylbutyl)-4-methylbenzenesulfonamide]		2.63 µM	1.44 µM
CCc1noc(-c2cc(-c3cc(S(=O)(=O)NCC(C)(C)O)ccc3C)cnc2N)n1 [Example 5.3, 3-(6-Amino-5-(3-ethyl-1,2,4-oxadiazol-5-yl)pyridin-3-yl)-N-(2-hydroxy-2-methylpropyl)-4-methylbenzenesulfon-amide hydrochloride]	> 10 µM	> 10 µM	
Cc1noc(-c2cc(-c3cc(S(=O)(=O)N[C@H]4C[C@@H](O)C4)ccc3C)cnc2N)n1 [Example 5.5a, 3-(6-Amino-5-(3-methyl-1,2,4-oxadiazol-5-yl)pyridin-3-yl)-N-((1s,3s)-3-hydroxycyclobutyl)-4-methylbenzenesulfonamide]	> 10 µM	> 10 µM	
Cc1ncc(-c2cc(-c3cc(S(=O)(=O)NCC(C)(C)O)ccc3C)cnc2N)s1 [Example 15, 3-[6-Amino-5-(2-methyl-thiazol-5-yl)-pyridin-3-yl]-N-(2-hydroxy-2-methyl-propyl)-4-methyl-benzenesulfonamide]	1.62 µM	7.9 µM	
Cc1cc(-c2cc(-c3cc(S(=O)(=O)NCCC(C)(C)O)ccc3C)cnc2N)ccn1 [Example 16, 3-(2-Amino-2′-methyl-[3,4′]bipyridinyl-5-yl)-N-(3-hydroxy-3-methyl-butyl)-4-methyl-benzenesulfonamide]	> 9.1 µM	> 9.1 µM	
Cc1cc(-c2cc(-c3cc(S(=O)(=O)NCC4(C)COC4)ccc3C)cnc2N)on1 [Example 17, 3-[6-Amino-5-(3-methyl-isoxazol-5-yl)-pyridin-3-yl]-4-methyl-N-(3-methyl-oxetan-3-ylmethyl)-benzenesulfonamide hydrochloride]	8.1 µM	8.5 µM	
COC1(C)CN(S(=O)(=O)c2ccc(C)c(-c3cnc(N)c(-c4nc(C)no4)c3)c2)C1 [Example 37.2, 5-(5-((3-Methoxy-3-methylazetidin-1-yl)sulfonyl)-2-methylphenyl)-3-(3-methyl-1,2,4-oxadiazol-5-yl)pyridin-2-amine]		> 10 µM	> 10 µM
Cc1cc(-c2cc(-c3cc(S(=O)(=O)NCC4(CO)CCCCC4)ccc3C)cnc2N)on1 [Example 37.3, 3-(6-Amino-5-(3-methylisoxazol-5-yl)pyridin-3-yl)-N-((1-(hydroxymethyl)cyclohexyl)methyl)-4-methylbenzenesulfonamide]	> 10 µM	3 µM	
Cc1noc(-c2cc(-c3cc(S(=O)(=O)NCC4CCCO4)ccc3C)cnc2N)n1 (stereo not drawn) [Example 57, 3-(6-Amino-5-(3-methyl-1,2,4-oxadiazol-5-yl)pyridin-3-yl)-4-methyl-N-((tetrahydrofuran-2-yl)methyl)benzenesulfonamide]		2.4 µM	> 10 µM
Cc1ccc(S(=O)(=O)NCC(C)(C)O)cc1-c1cnc(N)c(-c2cnoc2C)c1 [Example 62, 3-(6-Amino-5-(5-methylisoxazol-4-yl)pyridin-3-yl)-N-(2-hydroxy-2-methylpropyl)-4-methylbenzenesulfonamide]		> 10 µM	6.6 µM
Cc1ccc(S(=O)(=O)NCC(C)(C)O)cc1-c1cnc(N)c(-c2nc(C(F)F)no2)c1 [Example 71, 3-(6-Amino-5-(3-(difluoromethyl)-1,2,4-oxadiazol-5-yl)pyridin-3-yl)-N-(2-hydroxy-2-methylpropyl)-4-methylbenzenesulfonamide hydrochloride]		> 10 µM	10 µM
Cc1cc(-c2cc(-c3cc(S(=O)(=O)NCCO)ccc3C)cnc2N)on1 [Example 73, 3-(6-Amino-5-(3-methylisoxazol-5-yl)pyridin-3-yl)-N-(2-hydroxyethyl)-4-methylbenzenesulfonamide]	> 10 µM	> 10 µM	
Cc1ccc(S(=O)(=O)NCC(C)(C)O)cc1-c1cnc(N)c(-n2cncn2)c1 [Example 81, 3-(6-Amino-5-(1H-1,2,4-triazol-1-yl)pyridin-3-yl)-N-(2-hydroxy-2-methylpropyl)-4-methylbenzenesulfonamide hydrochloride]	> 9.8 µM		> 9.78 µM
Cc1cc(-c2cc(-c3cc(S(=O)(=O)NC[C@H]4C[C@@H](O)C4)ccc3C)cnc2N)on1 [Example 84, cis-3-(6-Amino-5-(3-methylisoxazol-5-yl)pyridin-3-yl)-N-(((1s,3s)-3-hydroxycyclobutyl)methyl)-4-methylbenzenesulfonamide]	> 10 µM		2.65 µM
Cc1noc(-c2cc(-c3cc(S(=O)(=O)NCC(C)(C)O)c(F)cc3C)cnc2N)n1 [Example 85, 5-(6-Amino-5-(3-methyl-1,2,4-oxadiazol-5-yl)pyridin-3-yl)-2-fluoro-N-(2-hydroxy-2-methylpropyl)-4-methylbenzenesulfonamide]	> 10 µM		> 10 µM
Cc1noc(-c2cc(-c3cc(S(=O)(=O)NC[C@@H]4CCOC4)ccc3C)cnc2N)n1 [Example 87, (S)-3-(6-Amino-5-(3-methyl-1,2,4-oxadiazol-5-yl)pyridin-3-yl)-4-methyl-N-((tetrahydrofuran-3-yl)methyl)benzenesulfonamide]	> 10 µM		6.1 µM
Cc1cnc(-c2cc(-c3cc(S(=O)(=O)NCCC(C)(C)O)ccc3C)cnc2N)s1 [Example 91, 3-(6-Amino-5-(5-methylthiazol-2-yl)pyridin-3-yl)-N-(3-hydroxy-3-methylbutyl)-4-methylbenzenesulfonamide]	> 10 µM		0.79 µM
Cc1nc(-c2cc(-c3cc(S(=O)(=O)N[C@H]4CC[C@H](O)CC4)ccc3C)cnc2N)cs1 [Example 92, 3-(6-Amino-5-(2-methylthiazol-4-yl)pyridin-3-yl)-N-((1r,4r)-4-hydroxycyclohexyl)-4-methylbenzenesulfonamide]	> 10 µM		5.1 µM
Cc1nc(-c2cc(-c3cc(S(=O)(=O)NCCC(C)(C)O)ccc3C)cnc2N)cs1 [Example 93, 3-(6-Amino-5-(2-methylthiazol-4-yl)pyridin-3-yl)-N-(3-hydroxy-3-methylbutyl)-4-methylbenzenesulfonamide]	> 10 µM		7.5 µM
Cc1ccc(S(=O)(=O)NCC(C)(C)O)cc1-c1cnc(N)c(-c2ncco2)c1 [Example 94b, 3-(6-amino-5-(oxazol-2-yl)pyridin-3-yl)-N-(2-hydroxy-2-methylpropyl)-4-methylbenzenesulfonamide]	> 10 µM		1.3 µM
Cc1ncc(-c2cc(-c3cc(S(=O)(=O)N[C@H]4CC[C@H](O)CC4)ccc3C)cnc2N)o1 [Example 98, 3-(6-amino-5-(2-methyloxazol-5-yl)pyridin-3-yl)-N-((1r,4r)-4-hydroxycyclohexyl)-4-methylbenzenesulfonamide hydrochloride]		7.9 µM	0.83 µM
Cc1nnc(-c2cc(-c3cc(S(=O)(=O)NCC(C)(C)O)ccc3C)cnc2N)s1 [Example 102, 3-(6-amino-5-(5-methyl-1,3,4-thiadiazol-2-yl)pyridin-3-yl)-N-(2-hydroxy-2-methylpropyl)-4-methylbenzenesulfonamide]	> 10 µM		8.6 µM
Cc1ncc(-c2cc(-c3cc(S(=O)(=O)NCC4COC4)ccc3C)cnc2N)o1 [Example 104.3, 3-(6-amino-5-(2-methyloxazol-5-yl)pyridin-3-yl)-4-methyl-N-(oxetan-3-ylmethyl)benzenesulfon-amide]	4.7 µM		4.6 µM
Cc1ncc(-c2cc(-c3cc(S(=O)(=O)NCC4(O)COC4)ccc3C)cnc2N)o1 [Example 104.7, 3-(6-amino-5-(2-methyloxazol-5-yl)pyridin-3-yl)-N-((3-hydroxyoxetan-3-yl)methyl)-4-methylbenzenesulfon-amide]	3.2 µM		1.8 µM
Cc1ncc(-c2cc(-c3cc(S(=O)(=O)N[C@H]4CC[C@H](CO)CC4)ccc3C)cnc2N)o1 [Example 104.11, 3-(6-amino-5-(2-methyloxazol-5-yl)pyridin-3-yl)-N-((1r,4r)-4-(hydroxymethyl)cyclo-hexyl)-4-methylbenzenesulfon-amide]	0.3 µM		0.5 µM
Cc1ncc(-c2cc(-c3cc(S(=O)(=O)NCC4(CO)CCOCC4)ccc3C)cnc2N)o1 [Example 104.13, 3-(6-amino-5-(2-methyloxazol-5-yl)pyridin-3-yl)-N-((4-(hydroxymethyl)tetra-hydro-2H-pyran-4-yl)methyl)-4-methylbenzenesulfon-amide]	> 10 µM		3.4 µM
Cc1nnc(-c2cc(-c3cc(S(=O)(=O)NCCC(C)(C)O)ccc3C)cnc2N)s1 [Example 105, 3-(6-amino-5-(5-methyl-1,3,4-thiadiazol-2-yl)pyridin-3-yl)-N-(3-hydroxy-3-methylbutyl)-4-methylbenzenesulfonamide]	> 10 µM		2.9 µM
Cc1ncc(-c2cc(-c3cc(S(=O)(=O)NOCC(C)(C)O)ccc3C)cnc2N)o1 [Example 107, 3-(6-amino-5-(2-methyloxazol-5-yl)pyridin-3-yl)-N-(2-hydroxy-2-methylpropoxy)-4-methylbenzenesulfonamide hydrochloride]	> 10 µM		0.66 µM
Cc1ccc(S(=O)(=O)NCC(C)(C)O)cc1-c1cnc(N)c(-c2ccn(C)n2)c1 [Example 110, 3-(6-amino-5-(1-methyl-1H-pyrazol-3-yl)pyridin-3-yl)-N-(2-hydroxy-2-methylpropyl)-4-methylbenzenesulfonamide]	> 10 µM		> 10 µM
